Source: article PMC9858427, “Design, synthesis and biological evaluation of 2-((4-sulfamoylphenyl)amino)-pyrrolo[2,3-d]pyrimidine derivatives as CDK inhibitors” (Journal of Enzyme Inhibition and Medicinal Chemistry, 2023)
Like-named read-outs stand apart in the source and are kept apart here.

Columns and labels:
[1] = molecular target: CDK9/cyclinT1 (Homo sapiens, UniProt P50750); assay: CDK9/cyclinT1 Lance Ultra Assay, single concentration screen; assay type: biochemical; conditions: ATP concentration at Km; for inhibition at 0.05 µM: 50 nM, read-out: CDK9 inhibitory rate (%) @ 50nM; for CDK9 inhibitory rate (%) @ 50nM: 0.05 µM
Method: (§1) CDK kinase activity (IC50 values and inhibitory rate at single concentration) was measured using the kinase profiling services (Shanghai ChemPartner Co., Ltd). Compounds were sent to ChemPartner as a solution in DMSO at concentration of 10 mM.

[2] = molecular target: CDK1 (Homo sapiens, UniProt P06493); assay: CDK1 kinase IC50, Mobility shift assay; assay type: biochemical
Method: as §1

[3] = system: MIA PaCa-2 cells; assay: MTT proliferation assay in MIA PaCa-2 cells; assay type: cell-based, human; conditions: 72 h drug exposure
Method: (§2) The human pancreatic carcinoma MIA PaCa-2 was purchased from China Centre for Type Culture Collection, AsPC-1 and BxPC-3 cell Lines were purchased from Cell Centre of the Institute of Basic Medical Sciences, Chinese Academy of Medical Sciences and Peking Union Medical College. PANC-1 was kindly provided by Nankai Hospital (Tianjin, China). These cancer cell lines were cultured according to the manufacturer’s instruction.
(§3) Then 3-fold diluted concentrations of tested compound were added respectively which was dissolved by DMSO in the ratio of 1:1000. After indicated incubation period, MTT was added to each well and incubated for 4 h at 37 °C. Then, the supernatant was discarded gently, and the precipitate was dissolved in 100 µL of DMSO in each well. The absorbance (A) at 570 nm was detected with a microplate reader (Multiskan MK3; Thermo Fisher Scientific, MA, USA). Vehicle-treated cells were served as the control for the calculation of relative cell viability (%) of treated group at single concentration. IC50 value was calculated directly from the inhibition curve of serial dilution of test compound and was expressed as mean ± SD using the SPSS statistical software (SPSS17.0 Inc., Chicago, IL, USA).

[4] = molecular target: CDK7 (Homo sapiens, UniProt P50613); assay: CDK7 kinase IC50, Mobility shift assay; assay type: biochemical
Method: as §1

[5] = molecular target: CDK9 (Homo sapiens, UniProt P50750); assay: CDK9 kinase IC50, Mobility shift assay; assay type: biochemical
Method: as §1

[6] = molecular target: CDK4 (Homo sapiens, UniProt P11802); assay: CDK4 kinase IC50, Mobility shift assay; assay type: biochemical
Method: as §1

[7] = molecular target: CDK2 (Homo sapiens, UniProt P24941); assay: CDK2 kinase IC50, Mobility shift assay; assay type: biochemical
Method: as §1

[8] = Solubility / precipitation observations; assay type: physicochemical
[9] = system: PANC-1; assay: MTT proliferation assay in PANC-1 cells; assay type: cell-based; conditions: Homo sapiens, 72 h drug exposure
Method: as §2
as §3, with “Cells were planted in 96-well plates at a density of 3000–4000 cells per well and incubated at 37 °C in a humidified CO2 incubator for 24 h. Then 3-fold” for “Then 3-fold”

[10] = Oral PK study in rats; assay type: in vivo; conditions: male, SD, rat, plasma, 30 mg/kg
Method: Synthetic compound was administered as a suspension or solution in the saline with 5% DMSO and 5% Solutol. GCTB was dissolved in saline. All of the experiments were approved by the Institutional Animal Care and Use Committee of Institute of Medicinal Biotechnology. All experiments were carried out under ethics committee–approved protocols and in compliance with the guidelines for the care of laboratory animals of Institute of Medicinal Biotechnology, CAMS.
SD rats were purchased from Beijing Vital River Laboratory Animal Technology Co., Ltd and randomly divided into three groups (n = 3, male). The animals were housed under standard conditions and fastened for 12 h before the treatment. They had free access to water and consumed a standard laboratory diet from 4 h after administration. Blood was taken from the orbital venous plexus at 0, 0.083, 0.25, 0.5, 1, 2, 4, 6, 8, and 24 h after intragastric administration of the test compound (30 mg/kg). The blood samples were collected into heparin anticoagulated EP tubes and centrifuged at 8000 r/min for 5 min at 2−8 °C; the plasma was separated and stored at −70 °C for use. Plasma was centrifuged at 4000 rpm for 10 min at 2−8 °C and stored at −70 °C until analysis. Plasma samples were analysed by LC-MS/MS (AB Sciex API4000 QTRAP) equipped with an ESI ion resource and Analyst 1.5.1 software. The noncompartmental model analysis was used for calculating pharmacokinetic parameters with the WinNolin professional v6.3 program (Pharsight, USA).

[11] = system: BxPC-3; assay: MTT proliferation assay in BxPC-3 cells; assay type: cell-based; conditions: Homo sapiens, 72 h drug exposure
Method: as §2
as §3, with “Cells were planted in 96-well plates at a density of 3000–4000 cells per well and incubated at 37 °C in a humidified CO2 incubator for 24 h. Then 3-fold” for “Then 3-fold”

[12] = system: AsPC-1; assay: MTT proliferation assay in AsPC-1 cells; assay type: cell-based; conditions: Homo sapiens, ASPC1; 72 h drug exposure
Method: as §2
as §3, with “Cells were planted in 96-well plates at a density of 3000–4000 cells per well and incubated at 37 °C in a humidified CO2 incubator for 24 h. Then 3-fold” for “Then 3-fold”

Chain of CDK9/cyclinT1 (P50750 whole entry): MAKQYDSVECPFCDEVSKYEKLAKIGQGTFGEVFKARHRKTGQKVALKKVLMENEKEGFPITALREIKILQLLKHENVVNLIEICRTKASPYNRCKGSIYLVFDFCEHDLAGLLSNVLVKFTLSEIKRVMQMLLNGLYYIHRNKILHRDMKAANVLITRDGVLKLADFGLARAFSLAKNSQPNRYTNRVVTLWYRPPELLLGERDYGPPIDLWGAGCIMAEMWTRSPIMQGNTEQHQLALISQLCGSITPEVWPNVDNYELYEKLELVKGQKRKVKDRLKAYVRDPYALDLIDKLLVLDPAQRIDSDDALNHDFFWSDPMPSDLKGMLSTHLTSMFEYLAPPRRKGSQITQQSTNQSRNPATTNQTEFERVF
Chain of CDK9/cyclinT1 (O60563 whole entry partner): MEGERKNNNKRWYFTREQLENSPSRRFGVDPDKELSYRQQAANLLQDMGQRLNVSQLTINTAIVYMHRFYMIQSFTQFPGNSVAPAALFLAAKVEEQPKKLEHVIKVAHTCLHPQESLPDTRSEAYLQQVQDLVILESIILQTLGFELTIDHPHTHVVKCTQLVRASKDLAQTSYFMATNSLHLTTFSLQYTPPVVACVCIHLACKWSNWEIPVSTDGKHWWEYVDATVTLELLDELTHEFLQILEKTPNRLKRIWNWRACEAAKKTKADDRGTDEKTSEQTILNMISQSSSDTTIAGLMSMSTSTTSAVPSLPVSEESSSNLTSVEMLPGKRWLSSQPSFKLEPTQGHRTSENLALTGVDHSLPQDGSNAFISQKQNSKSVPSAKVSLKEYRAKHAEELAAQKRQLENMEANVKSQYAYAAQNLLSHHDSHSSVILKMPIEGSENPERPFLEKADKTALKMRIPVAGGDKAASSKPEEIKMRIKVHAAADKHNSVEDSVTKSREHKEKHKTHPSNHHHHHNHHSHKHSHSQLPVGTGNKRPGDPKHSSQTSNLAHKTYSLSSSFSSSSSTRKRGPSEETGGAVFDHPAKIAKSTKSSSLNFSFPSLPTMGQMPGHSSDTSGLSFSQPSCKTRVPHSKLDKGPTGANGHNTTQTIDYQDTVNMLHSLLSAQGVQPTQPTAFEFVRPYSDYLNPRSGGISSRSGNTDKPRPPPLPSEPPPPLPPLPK
Chain of CDK9 (P50750 whole entry): as the sequence (P50750 whole entry) above
Chain of CDK9 (O60563 whole entry partner): as the sequence (O60563 whole entry partner) above
Chain of CDK7 (P50613 whole entry): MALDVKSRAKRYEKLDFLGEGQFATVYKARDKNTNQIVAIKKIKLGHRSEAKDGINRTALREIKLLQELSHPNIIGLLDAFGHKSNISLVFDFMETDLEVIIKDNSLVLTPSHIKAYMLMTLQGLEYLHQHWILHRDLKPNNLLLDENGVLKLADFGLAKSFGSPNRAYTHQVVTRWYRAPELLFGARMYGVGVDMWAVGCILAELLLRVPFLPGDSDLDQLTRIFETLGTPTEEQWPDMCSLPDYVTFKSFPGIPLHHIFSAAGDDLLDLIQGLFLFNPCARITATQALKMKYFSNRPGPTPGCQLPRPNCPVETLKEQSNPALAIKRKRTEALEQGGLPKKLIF
Chain of CDK7 (P51946 whole entry partner): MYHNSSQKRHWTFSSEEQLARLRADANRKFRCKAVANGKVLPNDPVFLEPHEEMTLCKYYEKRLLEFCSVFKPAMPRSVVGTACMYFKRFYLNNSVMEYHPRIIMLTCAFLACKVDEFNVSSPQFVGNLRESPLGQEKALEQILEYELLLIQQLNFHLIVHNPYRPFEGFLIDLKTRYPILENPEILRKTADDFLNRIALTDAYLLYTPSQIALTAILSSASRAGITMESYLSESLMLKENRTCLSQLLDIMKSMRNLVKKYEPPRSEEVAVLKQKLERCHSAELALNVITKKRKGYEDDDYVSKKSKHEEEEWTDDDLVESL
Chain of CDK7 (P51948 whole entry partner): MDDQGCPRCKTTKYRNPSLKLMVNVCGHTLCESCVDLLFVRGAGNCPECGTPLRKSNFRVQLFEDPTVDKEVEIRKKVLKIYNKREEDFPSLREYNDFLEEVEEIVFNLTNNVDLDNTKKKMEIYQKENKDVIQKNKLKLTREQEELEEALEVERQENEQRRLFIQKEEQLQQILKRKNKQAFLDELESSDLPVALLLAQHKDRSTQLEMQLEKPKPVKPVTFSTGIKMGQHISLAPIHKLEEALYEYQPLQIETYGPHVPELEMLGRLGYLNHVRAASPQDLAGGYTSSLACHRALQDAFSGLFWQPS
Chain of CDK1 (P06493 whole entry): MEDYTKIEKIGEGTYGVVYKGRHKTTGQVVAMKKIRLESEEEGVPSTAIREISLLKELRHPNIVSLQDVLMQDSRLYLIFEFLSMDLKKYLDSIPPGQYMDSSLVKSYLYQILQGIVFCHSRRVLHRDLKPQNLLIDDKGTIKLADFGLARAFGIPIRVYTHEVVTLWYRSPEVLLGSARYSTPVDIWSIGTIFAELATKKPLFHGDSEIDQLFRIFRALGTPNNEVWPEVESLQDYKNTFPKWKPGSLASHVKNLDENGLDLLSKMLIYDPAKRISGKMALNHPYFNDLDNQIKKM
Chain of CDK1 (P14635 whole entry partner): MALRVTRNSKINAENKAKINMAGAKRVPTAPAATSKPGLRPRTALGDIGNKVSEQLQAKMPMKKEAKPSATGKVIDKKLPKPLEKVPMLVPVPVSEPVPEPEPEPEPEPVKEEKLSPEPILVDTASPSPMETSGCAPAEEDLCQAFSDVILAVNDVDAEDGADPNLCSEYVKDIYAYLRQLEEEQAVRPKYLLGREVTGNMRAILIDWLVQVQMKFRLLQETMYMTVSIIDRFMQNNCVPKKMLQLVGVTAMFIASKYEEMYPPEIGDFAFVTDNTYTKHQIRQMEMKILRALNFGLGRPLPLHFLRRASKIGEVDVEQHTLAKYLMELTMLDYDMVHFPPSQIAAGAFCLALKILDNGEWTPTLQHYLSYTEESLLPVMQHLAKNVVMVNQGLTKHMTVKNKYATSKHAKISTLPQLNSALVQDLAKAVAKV
Chain of CDK4 (P11802 whole entry): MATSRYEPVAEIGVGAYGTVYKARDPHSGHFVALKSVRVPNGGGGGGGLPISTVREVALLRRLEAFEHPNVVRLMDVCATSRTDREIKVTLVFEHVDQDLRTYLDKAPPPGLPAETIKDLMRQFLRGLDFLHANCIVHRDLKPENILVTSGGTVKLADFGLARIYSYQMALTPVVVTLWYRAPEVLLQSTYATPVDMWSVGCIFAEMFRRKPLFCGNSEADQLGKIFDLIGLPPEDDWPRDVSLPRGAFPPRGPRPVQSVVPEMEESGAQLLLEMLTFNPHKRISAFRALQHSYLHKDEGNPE
Chain of CDK4 (P30281 whole entry partner): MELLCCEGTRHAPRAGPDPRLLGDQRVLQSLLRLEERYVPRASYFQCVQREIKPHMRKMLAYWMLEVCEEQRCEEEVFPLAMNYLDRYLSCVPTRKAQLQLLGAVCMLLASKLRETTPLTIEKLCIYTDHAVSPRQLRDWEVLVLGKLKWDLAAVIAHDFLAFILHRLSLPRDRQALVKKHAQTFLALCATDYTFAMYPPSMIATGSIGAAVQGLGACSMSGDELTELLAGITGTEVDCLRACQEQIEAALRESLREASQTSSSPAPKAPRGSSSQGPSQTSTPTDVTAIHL

inhibition at 0.05 µM [1] | IC50 ([3]; Homo sapiens, MIA PaCa-2, 72 h) | IC50 [4] | IC50 [5] | IC50 [6] | IC50 [7] | SMILES | further results
81.8% | 4.35 ± 1.61 µM | > 10000 nM | 13 nM | 52 nM | 236 nM | CN(C)C(=O)c1cc2cnc(Nc3ccc(S(=O)(=O)N4CCOCC4)cc3)nc2n1C1CCCC1 [5e, 7-Cyclopentyl-N,N-dimethyl-2-((4-(morpholinosulfonyl)phenyl)amino)-7H-pyrrolo[2,3-d]pyrimidine-6-carboxamide] | IC50 [2]: 439 nM
98.7% | > 10 µM |  |  |  |  | CN(C)C(=O)c1cc2cnc(Nc3ccc(S(=O)(=O)Nc4ncccn4)cc3)nc2n1C1CCCC1 [compound 2b, 7-Cyclopentyl-N,N-dimethyl-2-((4-(N-(pyrimidin-2-yl)sulfamoyl)phenyl)amino)-7H-pyrrolo[2,3-d]pyrimidine-6-carboxamide] | solubility (in words) [8]: poor solubility; IC50 [3]: 14.3 ± 0.21 µM
16.9% | 16.5 ± 7 µM |  |  |  |  | CN(C)C(=O)c1cc2cnc(Nc3ccc(N4CCNCC4)cn3)nc2n1C1CCCC1 [Ribociclib, reference compound] | 
99.1% | 18.8 ± 5.54 µM |  |  |  |  | CN(C)C(=O)c1cc2cnc(Nc3ccc(S(=O)(=O)Nc4ccccn4)cc3)nc2n1C1CCCC1 [2c] | solubility (in words) [8]: poor solubility
27% | > 100 µM |  |  |  |  | CN(C)C(=O)c1cc2cnc(Nc3ccc(S(N)(=O)=O)cn3)nc2n1C1CCCC1 [compound 2i, 7-Cyclopentyl-N,N-dimethyl-2-((5-sulfamoylpyridin-2-yl)amino)-7H-pyrrolo[2,3-d]pyrimidine-6-carboxamide] | CDK9 inhibitory rate (%) @ 50nM [1]: 27.4%
80.6% | 2.85 ± 0.52 µM | > 10000 nM | 20 nM | 170 nM | 2340 nM | CC1CCN(S(=O)(=O)c2ccc(Nc3ncc4cc(C(=O)N(C)C)n(C5CCCC5)c4n3)cc2)CC1 [5d, 7-Cyclopentyl-N,N-dimethyl-2-((4-((4-methylpiperidin-1-yl)sulphonyl)phenyl)amino)-7H-pyrrolo[2,3-d]pyrimidine-6-carboxamide] | IC50 [2]: 906 nM
100% | > 10 µM |  |  |  |  | Cc1ccnc(NS(=O)(=O)c2ccc(Nc3ncc4cc(C(=O)N(C)C)n(C5CCCC5)c4n3)cc2)n1 [2a, 7-cyclopentyl-N,N-dimethyl-2-((4-(N-(4-methylpyrimidin-2-yl)sulfamoyl)phenyl)amino)-7H-pyrrolo[2,3-d]pyrimidine-6-carboxamide] | IC50 [3]: 13 ± 0.37 µM
91.8% | 6.23 ± 1.25 µM | > 10000 nM | 7.7 nM | 148 nM | 7980 nM | CN(C)C(=O)c1cc2cnc(Nc3ccc(S(=O)(=O)Nc4ccc(Cl)cc4)cc3)nc2n1C1CCCC1 [2d, 2-((4-(N-(4-chlorophenyl)sulfamoyl)phenyl)amino)-7-cyclopentyl-N,N-dimethyl-7H-pyrrolo[2,3-d]pyrimidine-6-carboxamide] | 
25% | 69.1 ± 15.5 µM |  |  |  |  | CN(C)C(=O)c1cc2cnc(Nc3ccc(S(=O)(=O)N(C)C)cn3)nc2n1C1CCCC1 [2j] | CDK9 inhibitory rate (%) @ 50nM [1]: 25.8%
54% | 80.8 ± 16 µM |  |  |  |  | COc1ccccc1NC(=O)c1cc2cnc(Nc3ccc(S(=O)(=O)Nc4ncccn4)cc3)nc2n1C1CCCC1 [10b, 7-Cyclopentyl-N-(2-methoxyphenyl)-2-((4-(N-(pyrimidin-2-yl)sulfamoyl)phenyl)amino)-7H-pyrrolo[2,3-d]pyrimidine-6-carboxamide] | CDK9 inhibitory rate (%) @ 50nM [1]: 54.4%
96.5% | 18.9 ± 2.12 µM |  |  |  |  | CN(C)C(=O)c1cc2cnc(Nc3ccc(S(C)(=O)=O)cc3)nc2n1C1CCCC1 [2f, 7-Cyclopentyl-N,N-dimethyl-2-((4-(methylsulfonyl)phenyl)amino)-7H-pyrrolo[2,3-d]pyrimidine-6-carboxamide] | 
-3.1% | 40.8 ± 3.26 µM |  |  |  |  | COc1ccccc1NC(=O)c1cc2cnc(Nc3ccc(S(=O)(=O)Nc4nc(C)cc(C)n4)cc3)nc2n1C1CCCC1 [10a, 7-Cyclopentyl-2-((4-(N-(4,6-dimethylpyrimidin-2-yl)sulfamoyl)phenyl)amino)-N-(2-methoxyphenyl)-7H-pyrrolo[2,3-d]pyrimidine-6-carboxamide] | 
89.3% | 10.5 ± 0.74 µM |  |  |  |  | CN(C)C(=O)c1cc2cnc(Nc3ccc(S(=O)(=O)N(C)C)cc3)nc2n1C1CCCC1 [2e, 7-Cyclopentyl-2-((4-(N,N-dimethylsulfamoyl)phenyl)amino)-N,N-dimethyl-7H-pyrrolo[2,3-d]pyrimidine-6-carboxamide] | 
93.2% | 45.1 ± 16.6 µM |  |  |  |  | CN(C)C(=O)c1cc2cnc(Nc3ccccc3)nc2n1C1CCCC1 [compound 2h] | 
99.1% | 7.8 ± 1.04 µM | > 10000 nM | 6.3 nM | 35 nM | 227 nM | CN1CCN(S(=O)(=O)c2ccc(Nc3ncc4cc(C(=O)N(C)C)n(C5CCCC5)c4n3)cc2)CC1 [5c, 7-Cyclopentyl-N,N-dimethyl-2-((4-((4-methylpiperazin-1-yl)sulphonyl)phenyl)amino)-7H-pyrrolo[2,3-d]pyrimidine-6-carboxamide] | IC50 [2]: 550 nM
98.2% | 0.94 ± 0.25 µM | 4970 nM | 3.2 nM | 20 nM | 147 nM | CN(C)C(=O)c1cc2cnc(Nc3ccc(S(=O)(=O)N4CCNCC4)cc3)nc2n1C1CCCC1.O=C(O)C(F)(F)F [compound 5b, 7-Cyclopentyl-N,N-dimethyl-2-((4-(piperazin-1-ylsulfonyl)phenyl)amino)-7H-pyrrolo[2,3-d]pyrimidine-6-carboxamide trifluoroacetate] | IC50 [2]: 333 nM; IC50 [9]: 5.81 ± 1.38 µM; Cmax ([10]; single oral administration, read-out: maximum plasma drug concentration (Cmax)): 1080 ng/mL; AUC ([10]; single oral administration, read-out: systematic exposure (AUC0‑t)): 4430 ng·h/mL; AUC(0-inf) ([10]; oral, n = 3): 4780 ± 2160 ng·h/mL; AUC(0-t) ([10]; oral, n = 3): 4430 ± 1620 ng·h/mL; MRT ([10]; oral, n = 3): 3.62 ± 0.83 h; Tmax ([10]; oral, n = 3): 1.17 h; half-life ([10]; oral, n = 3): 2.2 ± 0.9 h; Cmax ([10]; oral, n = 3, read-out: Cmax): 2000 nM; IC50 [11]: 0.249 ± 0.099 µM; IC50 [12]: 1.48 ± 0.09 µM
